The numbers were not newly measured in patent US11707436B2, “Methods of treating inflammatory disorders and global inflammation with compositions comprising phospholipid nanoparticle encapsulations of NSAIDS” (NanoSphere Health Sciences, LLC, priority 2014, dated 2023), which cites them from elsewhere.

Each structure is given as a SMILES string. In brackets after ≈: the same amount, converted by molar mass.

For series [1] the following is noted: for Solubility of NSAIDs at 25 C: source drugbank.ca.
Series [2] deals with NF-KappaB. The following applies: for inhibition of NF-kappaB activity: concentrations comparable to those used in therapy; for inhibition of activation of the NF-KappaB pathway: concentrations measured in serum of treated patients.
For series [3], the system named is NF-KappaB. The conditions noted are these: highly variable efficacy.
Series [4] concerns NF-Kappa B.
For series [5] the following is noted: clinical studies.
For series [6] the following is noted: renal colic.
The conditions of series [7]: after removal of lower third molars.

For `CC(=O)Oc1ccccc1C(=O)O` [Acetylsalicylic acid], the “Solubility of NSAIDs at 25 C” value in series [1] is 3300 µg/mL. Further, in series [2], the “inhibition of NF-kappaB activity” value is “effectively inhibit” and the “inhibition of activation of the NF-KappaB pathway” value is “inhibit activation”. The “inhibition of TNF-induced NF-KappaB activation” value in series [3] is “inhibited”.

Take `C=C(C)[C@@H]1CCC(C)=C[C@H]1c1c(O)cc(CCCCC)cc1O` [Cannabidiol]: the “NF-Kappa B activation, pro-inflammatory cytokines and mediators (TNF-alpha, iNOS)” value in series [4] is listed as “attenuate”. In addition, the solubility in water result in series [1] (words only) is reported as “insolubility in water”.

Consider `O=C(O)Cc1ccccc1Nc1c(Cl)cccc1Cl` [Diclofenac], for which the “Solubility of NSAIDs at 25 C” value in series [1] was 50000 µg/mL.

`CC(C)Cc1ccc(C(C)C(=O)O)cc1` (centres unmarked) [Ibuprofen]: in series [1], the “Solubility of NSAIDs at 25 C” value was 21000 µg/mL and the “solubility water at 25° C” value is 21000 µg/mL (≈ 102 mM). Further, in series [2], the “inhibition of NF-kappaB activity” value is “effectively inhibit”. Further, the “inhibition of TNF-induced NF-KappaB activation” value in series [3] is “inhibited”.

On to `COc1ccc2c(c1)c(CC(=O)O)c(C)n2C(=O)c1ccc(Cl)cc1` [Indomethacin], for which the “concentrations in CSF” value in series [5] is “minimal concentrations”. Moreover, the “Solubility of NSAIDs at 25 C” value in series [1] is 937 µg/mL.

For `CC(C(=O)O)c1cccc(C(=O)c2ccccc2)c1` (centres unmarked) [Ketoprofen], the “concentrations in CSF” value in series [5] is “minimal concentrations”.

In the case of `COc1ccc2cc([C@H](C)C(=O)O)ccc2c1` [Naproxen], the “inhibition of NF-kappaB activity” value in series [2] was “effectively inhibit”. Moreover, in series [3], the “inhibition of TNF-induced NF-KappaB activation” value is listed as “inhibited”.

For `O=C(O)c1ccccc1O` [Salicylic acid], in series [1], the “Solubility of NSAIDs at 25 C” value was 3000 µg/mL and the “solubility water at 25° C” value is 3000 µg/mL (≈ 21.7 mM).

With `COc1cc(/C=C/C(=O)CC(=O)/C=C/c2ccc(O)c(OC)c2)ccc1O` [curcumin], in series [3], the “inhibition of TNF-induced NF-KappaB activation” value was “inhibited”.

For the compound `CC(C(=O)O)c1ccc(N2CC=CC2)c(Cl)c1` (centres unmarked) [piroprofen], in series [5], the “concentrations in CSF” value was “minimal concentrations”.

On to `CN1C(C(=O)Nc2ccccn2)=C(O)c2ccccc2S1(=O)=O` [piroxicam], for which the “efficacy of sublingual versus IM injection” value in series [6] is “as effective as the IM injection”. The “pain scores, oral versus sublingual route” value in series [7] is given as “no significant differences”.

Regarding `Oc1ccc(C=Cc2cc(O)cc(O)c2)cc1` [resveratrol], the “inhibition of TNF-induced NF-KappaB activation” value in series [3] is “inhibited”.

With `O=C([O-])c1ccccc1O.[Na+]` [salicylate, sodium salicylate], the “inhibition of activation of the NF-KappaB pathway” value in series [2] is recorded as “inhibit activation”.

On to `CC1=C(CC(=O)O)c2cc(F)ccc2/C1=C\c1ccc([S+](C)[O-])cc1` (centres unmarked) [sulindac], for which the “inhibition of TNF-induced NF-KappaB activation” value in series [3] is “inhibited”.

Take `CC/C(=C(\c1ccccc1)c1ccc(OCCN(C)C)cc1)c1ccccc1` [tamoxifen]: the “inhibition of TNF-induced NF-KappaB activation” value in series [3] is on record as “inhibited”.
